The nature of data set [1]: Solubility in 0.1 M phosphate buffer at pH 7. The class given is physicochemical. To be noted: 0.1 M phosphate buffer at pH 7, 10 mg/mL final peptide concentration, shaking 2 hours at room temperature, peptides as TFA-salts, measured sample pH 6.5-7.0.
Data set [2] has as its target T1, hGIPR (Homo sapiens, UniProt P48546).
T1 construct: expressed in transfected cells; host or cells: CHO CRE-luciferase reporter cells
T1 sequence (P48546 22-466): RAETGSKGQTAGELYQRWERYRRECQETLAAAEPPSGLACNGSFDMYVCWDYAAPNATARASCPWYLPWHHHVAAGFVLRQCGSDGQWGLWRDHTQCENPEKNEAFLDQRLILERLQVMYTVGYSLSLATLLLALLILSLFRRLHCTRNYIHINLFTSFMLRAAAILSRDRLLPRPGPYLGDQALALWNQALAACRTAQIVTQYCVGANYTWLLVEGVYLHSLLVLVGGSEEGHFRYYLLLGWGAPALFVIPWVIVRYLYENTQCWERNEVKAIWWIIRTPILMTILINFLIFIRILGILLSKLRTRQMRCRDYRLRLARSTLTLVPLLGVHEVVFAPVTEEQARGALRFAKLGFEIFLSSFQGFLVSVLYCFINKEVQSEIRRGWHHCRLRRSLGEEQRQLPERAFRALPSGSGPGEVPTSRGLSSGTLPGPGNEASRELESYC
Description: hGIPR CreLuc assay in 0.5% and 100% plasma (CHO CRE-luciferase reporter cells). The class given is cell-based. From the text:
CHO and HEK-293 recombinant cell lines express a luciferase reporter gene under control of the CAMP responsive element (CRE). As a second recombinant protein the GLP-1 and NPY2 receptors were expressed in the reporter gene HEK cells, and the GIP receptor was expressed in the reporter gene CHO cells, respectively. Stimulation of these recombinant cells with an agonist leads to an increase of intracellular CAMP levels. In the presence of CAMP, the transcription factor CRE binding protein (CREB) binds to the CRE and to the CREB binding protein (CBP), which leads to transcription of the luciferase reporter gene. Peptides upon serial-dilution in 100% DMSO were transferred into 384-well assay plates with 5 μl pre-dispensed assay buffer (1×HBSS, 20 mM HEPES, pH7.4 supplemented with 0.5% human plasma) using acoustic dispensing on a Labcyte ECHO. Cryo-preserved transgenic reporter gene cells were thawed in assay buffer. 20 μl (10.000 cells/well) were added to the plate with the peptides and incubated for 4 hours at 37° C. in a humidified incubator. Following incubation, assay plates are equilibrated to room temperature, followed by addition of 25 μl of Bright-Glo™ Luciferase reagent, incubation at room temperature for 10 minutes and analysis of luminescence (Envision Reader). […] EC50 values were calculated by non-linear regression using sigmoid concentration-response with variable slope.
The same assays were run in the presence of 100% plasma with no additional buffer constituents.

Where two headings read alike, the source gives them in different places. Where a SMILES comes first, the peptide text is derived from it. Side-chain parts run from the residue outwards. [ ]: non-standard residue; d: D form. The star is where a group is joined. ξ: configuration not given here. C18 diacid = O=C(O)CCCCCCCCCCCCCCCCC(=O)*; NMeY = CN[C@@H](Cc1ccc(O)cc1)C(=O)O; Palmitoyl = CCCCCCCCCCCCCCCC(=O)*; αMeF = C[C@](N)(Cc1ccccc1)C(=O)O; ξIva = CCC(C)(N)C(=O)O; Aib = CC(C)(N)C(=O)O

What is called solubility is how much of the substance goes into solution per volume. One may read the EC50 as the concentration that produces a half-maximal response. Higher therefore signals weaker potency. In the case of `CC[C@H](C)[C@H](NC(=O)[C@H](CC(C)C)NC(=O)[C@H](Cc1c[nH]cn1)NC(=O)[C@H](CCCNC(=N)N)NC(=O)[C@@H](NC(=O)[C@H](Cc1ccccc1)NC(=O)[C@H](C)NC(=O)C(C)(C)NC(=O)[C@H](CCC(N)=O)NC(=O)[C@H](C)NC(=O)[C@H](CCC(N)=O)NC(=O)[C@H](CCCCN)NC(=O)[C@H](CCC(=O)O)NC(=O)[C@H](CC(C)C)NC(=O)C(C)(C)NC(=O)[C@@H](NC(=O)[C@H](CO)NC(=O)[C@H](CC(C)C)NC(=O)[C@H](CC(=O)O)NC(=O)[C@H](CO)NC(=O)[C@@H](NC(=O)[C@H](Cc1ccccc1)NC(=O)[C@@H](NC(=O)CNC(=O)[C@H](CCC(=O)O)NC(=O)C(C)(C)NC(=O)[C@@H](N)Cc1ccc(O)cc1)[C@@H](C)O)[C@@H](C)O)[C@@H](C)CC)C(C)C)C(=O)N[C@@H](CC(N)=O)C(=O)N[C@@H](CCCCNC(=O)CCCCCNC(=O)CCCCCNC(=O)CC[C@H](NC(=O)CC[C@H](NC(=O)CC[C@H](NC(=O)CC[C@H](NC(=O)CC[C@H](NC(=O)CCCCCCCCCCCCCCCCCCC(=O)O)C(=O)O)C(=O)O)C(=O)O)C(=O)O)C(=O)O)C(=O)NC(C)(C)C(=O)N[C@H](C(=O)N[C@@H](CCCNC(=N)N)C(=O)N[C@@H](CCC(N)=O)C(=O)N[C@@H](CCCNC(=N)N)C(=O)N[C@@H](Cc1ccc(O)cc1)C(N)=O)[C@@H](C)O` [Compound 1, Y-Aib-E-G-T-F-T-S-D-L-S-I-Aib-L-E-K-Q-A-Q-Aib-A-F-V-R-H-L-I-N-K(1,3)-Aib-T-R-Q-R-Y-NH2.C20DA-gGlu-gGlu-gGlu-gGlu-gGlu-AHX-AHX(1,2)], in data set [1], the solubility at 2 h worked out at 9800 µg/mL. Further, the EC50 in data set [2] (hGIPR 0.5% hP (nM), 0.5% human plasma) is 0.2 nM; in data set [2] (hGIPR 100% hP (nM), 100% human plasma), 10.3 nM. Take `CC[C@H](C)[C@H](NC(=O)[C@H](CC(C)C)NC(=O)[C@H](Cc1c[nH]cn1)NC(=O)[C@H](CCCNC(=N)N)NC(=O)[C@@H](NC(=O)[C@H](Cc1ccccc1)NC(=O)[C@H](C)NC(=O)C(C)(C)NC(=O)[C@H](CCC(N)=O)NC(=O)[C@H](C)NC(=O)[C@H](CCC(N)=O)NC(=O)[C@H](CCCCN)NC(=O)[C@H](CCC(=O)O)NC(=O)[C@H](CC(C)C)NC(=O)C(C)(C)NC(=O)[C@@H](NC(=O)[C@H](CO)NC(=O)[C@H](Cc1ccc(O)cc1)NC(=O)[C@H](CC(=O)O)NC(=O)[C@H](CO)NC(=O)[C@@H](NC(=O)[C@H](Cc1ccccc1)NC(=O)[C@@H](NC(=O)CNC(=O)[C@H](CCC(=O)O)NC(=O)C(C)(C)NC(=O)[C@@H](N)Cc1ccc(O)cc1)[C@@H](C)O)[C@@H](C)O)[C@@H](C)CC)C(C)C)C(=O)N[C@@H](CC(N)=O)C(=O)N[C@@H](CCCCNC(=O)[C@@H](N)CCNC(=O)CC[C@H](NC(=O)CC[C@H](NC(=O)CC[C@H](NC(=O)CC[C@H](NC(=O)CC[C@H](NC(=O)CC[C@H](NC(=O)CCCCCCCCCCCCCCCCC(=O)O)C(=O)O)C(=O)O)C(=O)O)C(=O)O)C(=O)O)C(=O)O)C(=O)NC(C)(C)C(=O)N[C@H](C(=O)N[C@@H](CCCNC(=N)N)C(=O)N[C@@H](CCC(N)=O)C(=O)N[C@@H](CCCNC(=N)N)C(=O)N[C@@H](Cc1ccc(O)cc1)C(N)=O)[C@@H](C)O` [Compound 120, Y-Aib-E-G-T-F-T-S-D-Y-S-I-Aib-L-E-K-Q-A-Q-Aib-A-F-V-R-H-L-I-N-K(1,3)-Aib-T-R-Q-R-Y-NH2.C18DA-gGlu-gGlu-gGlu-gGlu-gGlu-gGlu-gDab(1,2)]: in data set [1] (read-out: Solubility), the solubility amounted to 4700 µg/mL. Consider `CC[C@H](C)[C@H](NC(=O)[C@H](C)NC(=O)[C@H](Cc1c[nH]cn1)NC(=O)[C@H](CCCNC(=N)N)NC(=O)[C@@H](NC(=O)[C@H](Cc1ccccc1)NC(=O)[C@H](C)NC(=O)C(C)(C)NC(=O)[C@H](CCC(N)=O)NC(=O)[C@H](C)NC(=O)[C@H](CCC(N)=O)NC(=O)[C@H](CCCCN)NC(=O)[C@H](CCC(=O)O)NC(=O)[C@H](CC(C)C)NC(=O)C(C)(C)NC(=O)[C@@H](NC(=O)[C@H](CO)NC(=O)[C@H](Cc1ccc(O)cc1)NC(=O)[C@H](CC(=O)O)NC(=O)[C@H](CO)NC(=O)[C@@H](NC(=O)[C@H](Cc1ccccc1)NC(=O)[C@@H](NC(=O)CNC(=O)[C@H](CCC(=O)O)NC(=O)C(C)(C)NC(=O)[C@@H](N)Cc1ccc(O)cc1)[C@@H](C)O)[C@@H](C)O)[C@@H](C)CC)C(C)C)C(=O)N[C@@H](CC(N)=O)C(=O)N[C@@H](CCCCNC(=O)[C@@H](N)CCCCNC(=O)CC[C@H](NC(=O)CC[C@H](NC(=O)CC[C@H](NC(=O)CC[C@H](NC(=O)CC[C@H](NC(=O)CC[C@H](NC(=O)CCCCCCCCCCCCCCCCC(=O)O)C(=O)O)C(=O)O)C(=O)O)C(=O)O)C(=O)O)C(=O)O)C(=O)NC(C)(C)C(=O)N[C@H](C(=O)N[C@@H](CCCNC(=N)N)C(=O)N[C@@H](CCC(N)=O)C(=O)N[C@@H](CCCNC(=N)N)C(=O)N[C@@H](Cc1ccc(O)cc1)C(N)=O)[C@@H](C)O` [Compound 139, Y-Aib-E-G-T-F-T-S-D-Y-S-I-Aib-L-E-K-Q-A-Q-Aib-A-F-V-R-H-A-I-N-K(1,3)-Aib-T-R-Q-R-Y-NH2.C18DA-gGlu-gGlu-gGlu-gGlu-gGlu-gGlu-eLys(1,2)], for which the solubility at 2 h in data set [1] worked out at 9000 µg/mL.

On to `CCCCCCCCCCCCCCCC(=O)NCC(=O)NCC(=O)NCC(=O)NCC(=O)NCCCC[C@H](NC(=O)[C@H](CC(=O)O)NC(=O)[C@H](CO)NC(=O)[C@@H](NC(=O)[C@](C)(Cc1ccccc1)NC(=O)[C@@H](NC(=O)CNC(=O)[C@H](CCC(=O)O)NC(=O)C(C)(C)NC(=O)[C@H](Cc1ccc(O)cc1)NC)[C@@H](C)O)[C@@H](C)O)C(=O)N[C@@H](CO)C(=O)N[C@H](C(=O)NC(C)(C)C(=O)N[C@@H](CC(C)C)C(=O)N[C@@H](CCC(=O)O)C(=O)N[C@@H](CCCCN)C(=O)N[C@@H](CCC(N)=O)C(=O)N[C@@H](CCCNC(=N)N)C(=O)N[C@@H](CCC(N)=O)C(=O)NC(C)(CC)C(=O)N[C@@H](CCC(=O)O)C(=O)N[C@@H](Cc1ccccc1)C(=O)N[C@H](C(=O)N[C@@H](CCCNC(=N)N)C(=O)N[C@@H](Cc1c[nH]cn1)C(=O)N[C@@H](CC(C)C)C(=O)N[C@@H](CC(C)C)C(=O)N[C@@H](CC(N)=O)C(=O)N[C@@H](CCCCN)C(=O)NC(C)(C)C(=O)N[C@H](C(=O)N[C@@H](CCCNC(=N)N)C(=O)N[C@@H](CCC(N)=O)C(=O)N[C@@H](CCCNC(=N)N)C(=O)N[C@@H](Cc1ccc(O)cc1)C(N)=O)[C@@H](C)O)C(C)C)[C@@H](C)CC` (stereo partly drawn) [Ref. 1, NMeY-Aib-E-G-T-aMeF-T-S-D-K(1,3)-S-I-Aib-L-E-K-Q-R-Q-Iva-E-F-V-R-H-L-L-N-K-Aib-T-R-Q-R-Y-NH2.C16A-G-G-G-G(1,2), reference compound] (H-[NMeY][Aib]EGT[αMeF]TSDK([Gly-Gly-Gly-Gly-Palmitoyl])SI[Aib]LEKQRQ[ξIva]EFVRHLLNK[Aib]TRQRY-NH2), for which, in data set [1], the “solubility” value is under 1000 µg/mL and the solubility at 2 h was under 1000 µg/mL. As for `CC[C@H](C)[C@H](NC(=O)[C@H](CO)NC(=O)[C@H](CCCCNC(=O)CNC(=O)CNC(=O)CNC(=O)CNC(=O)CCCCCCCCCCCCCCCCC(=O)O)NC(=O)[C@H](CC(=O)O)NC(=O)[C@H](CO)NC(=O)[C@@H](NC(=O)[C@](C)(Cc1ccccc1)NC(=O)[C@@H](NC(=O)CNC(=O)[C@H](CCC(=O)O)NC(=O)C(C)(C)NC(=O)[C@@H](N)Cc1ccc(O)cc1)[C@@H](C)O)[C@@H](C)O)C(=O)NC(C)(C)C(=O)N[C@@H](CC(C)C)C(=O)N[C@@H](CCC(=O)O)C(=O)N[C@@H](CCCCN)C(=O)N[C@@H](CCC(N)=O)C(=O)N[C@@H](CCCNC(=N)N)C(=O)N[C@@H](CCC(N)=O)C(=O)NC(C)(CC)C(=O)N[C@@H](CCC(=O)O)C(=O)N[C@@H](Cc1ccccc1)C(=O)N[C@H](C(=O)N[C@@H](CCCNC(=N)N)C(=O)N[C@@H](Cc1c[nH]cn1)C(=O)N[C@@H](CC(C)C)C(=O)N[C@@H](CC(C)C)C(=O)N[C@@H](CC(N)=O)C(=O)N[C@@H](CCCCN)C(=O)NC(C)(C)C(=O)N[C@H](C(=O)N[C@@H](CCCNC(=N)N)C(=O)N[C@@H](CCC(N)=O)C(=O)N[C@@H](CCCNC(=N)N)C(=O)N[C@@H](Cc1ccc(O)cc1)C(N)=O)[C@@H](C)O)C(C)C` (stereo partly drawn) [Ref. 3, Y-Aib-E-G-T-aMeF-T-S-D-K(1,3)-S-I-Aib-L-E-K-Q-R-Q-Iva-E-F-V-R-H-L-L-N-K-Aib-T-R-Q-R-Y-NH2.C18DA-G-G-G-G(1,2), reference compound] (H-Y[Aib]EGT[αMeF]TSDK([Gly-Gly-Gly-Gly-C18 diacid])SI[Aib]LEKQRQ[ξIva]EFVRHLLNK[Aib]TRQRY-NH2), in data set [1], the “solubility” value is under 1000 µg/mL and the solubility at 2 h was under 1000 µg/mL.
